The values below come from publication PMC5344255, “Design, Synthesis and Biochemical Evaluation of Novel Selective Estrogen Receptor Ligand Conjugates Incorporating an Endoxifen-Combretastatin Hybrid Scaffold” (Biomedicines, 2016).

Structures are written as SMILES.

The subject of data set [1] is MCF-7 human breast cancer cells. Description: MTT assay for antiproliferative effects in MCF-7. It is filed as cell-based. Here is the method: (§1) The human breast carcinoma cell line, MCF-7, was purchased from the European Collection of Animal Cell Cultures (ECACC). The cells were maintained in MCF-7 complete medium; consisting of Eagle’s Minimum Essential Medium (MEM) supplemented with 10% (v/v) Foetal Bovine Serum (FBS), 2 mM L-glutamine, 100 μg/mL penicillin/streptomycin and 1% (v/v) non-essential amino acids. Cell cultures were maintained at 37 °C under a humidified atmosphere of 5% CO2/95% O2. The human breast carcinoma cell line, MDA, was purchased from the European Collection of Animal Cell Cultures (ECACC). The cells were maintained in MDA complete medium; consisting of Dulbecco’s Modified Eagle’s Medium (D-MEM) supplemented with 10% (v/v) Foetal Bovine Serum (FBS), 2 mM L-glutamine, 100 μg/mL penicillin/streptomycin. Cell cultures were maintained at 37 °C under a humidified atmosphere of 5% CO2/95% O2. The MTT assay was performed according to the reported protocol. The tetrazolium salt, 3-(4,5-dimethylthiazol-2-yl)-2,5-diphenyltetrazolium bromide (MTT) is taken up only by metabolically active cells and cleaved to form a formazan dye by mitochondrial dehydrogenases. Assays where repeated in three experiments performed in triplicate (unless otherwise stated) and reported results represent the mean value ± standard error mean. Graphs of percentage cell viability versus concentration of the subject compound were processed using PRISM [31].

Data set [2] deals with MDA-MB-231 human breast cancer cells. Description: Lactate dehydrogenase (LDH) cytotoxicity assay in MDA-MB-231. The conditions noted are these: % cell lysis at 10 μM. Type of data set: cell-based. The protocol:
(§2) In this assay, the release of cytoplasmic lactate dehydrogenase (LDH) is used as a measure of cell lysis. MCF-7 and MDA-MB-231 cells were seeded at a density of 1 × 10^4 cells/well in a 96-well plate and incubated for 24 h. The cells were then dosed with 2 μL volumes of the test compounds, over the concentration range 1 nM–50 μM. Cytotoxicity was determined using the CytoTox 96 nonradioactive cytotoxicity assay (Promega, Madison, WI, USA) following the manufacturer’s protocol.

Data set [3] shares this test system. Description: MTT assay for antiproliferative effects in MDA-MB-231. Type of data set: cell-based. To be noted: MDA-MB-231, MTT assay. The protocol:
as §1, with “Cell cultures were maintained at 37 °C under a humidified atmosphere of 5% CO2/95% O2.” left out, “Assays where repeated in three experiments performed in triplicate (unless otherwise stated) and reported results represent the mean value ± standard error mean.” left out

The subject of data set [4] is MCF-7 human breast cancer cells. Description: Lactate dehydrogenase (LDH) cytotoxicity assay in MCF-7. It is filed as cell-based. The conditions noted are these: % cell lysis at 10 µM. Here is the method: as §2
Data set [5] concerns Ishikawa cell line of human endometrial adenocarcinoma cells. Description: Ishikawa assay, estrogen stimulation of alkaline phosphatase activity. It is filed as cell-based. The protocol: The Ishikawa assay is used to measure estrogen stimulation of alkaline phosphatase enzyme activity (AlkP) by the Ishikawa cell line of human endometrial adenocarcinoma cells. The Ishikawa assay provides a measure of the agonist activity of a compound. […] The assay was carried out following the method of Littlefield et al.. The batch of Ishikawa cells were obtained as a gift from Professor R. Hochberg—who developed the alkaline phosphatase assay in Yale University, CT, USA.
The Ishikawa assay is used to measure estrogen stimulation of alkaline phosphatase enzyme activity (AlkP) by the Ishikawa cell line of human endometrial adenocarcinoma cells. […] The conjugate was dosed in duplicate.

Setting [6] is: Homo sapiens, MCF7, MCF-7, MTT assay, mean of at least three experiments in triplicate.
[7] abbreviates: Homo sapiens, MCF7, MCF-7, MTT assay, values in nM.

`COc1cc(/C(=C\c2ccc3ccccc3c2)C(=O)O)cc(OC)c1OC` [Compound 22, (E)-3-Naphthalen-2-yl-2-(3,4,5-trimethoxyphenyl)acrylic acid] displayed a melting point of 238 to 240 °C. The compound further had an IC50 in data set [1] (setting [6]) of 15300 nM.

In the case of `COc1cc(/C(=C\c2ccc(Br)cc2)C(=O)O)cc(OC)c1OC` [Compound 17, (E)-3-(4-Bromophenyl)-2-(3,4,5-trimethoxyphenyl)acrylic Acid], the melting point lay within 227 to 230 °C. Also, in data set [1] (setting [6]), the IC50 is greater than 50000 nM.

For `COc1cc(/C(=C\c2ccc(F)cc2)C(=O)O)cc(OC)c1OC` [Compound 18, (E)-3-(4-Fluorophenyl)-2-(3,4,5-trimethoxyphenyl)acrylic acid], the melting point was 211 to 213 °C. In data set [1] (setting [6]), the IC50 is greater than 50000 nM.

`CCC(=C(c1ccc(O)cc1)c1ccc(OCCN(C)C(=O)/C(=C/c2ccc(OC)c(F)c2)c2cc(OC)c(OC)c(OC)c2)cc1)c1ccccc1` (mixture of isomers) [Compound 43, (E)-3-(3-Fluoro-4-methoxyphenyl)-N-(2-{4-[(E/Z)-1-(4-hydroxyphenyl)-2-phenylbut-1-enyl]phenoxy}ethyl)-N-methyl-2-(3,4,5-trimethoxyphenyl) acrylamide]: the “% Cell Death at 10 μM” value in data set [2] was 0%; in data set [4], 2%. Moreover, the IC50 in data set [3] stood at 30.3 µM; in data set [1] (setting [6]) it was 180 nM.

Turning to `CCC(=C(c1ccc(O)cc1)c1ccc(OCCN(C)C(=O)/C(=C/c2ccc3ccccc3c2)c2cc(OC)c(OC)c(OC)c2)cc1)c1ccc(O)cc1` (mixture of isomers) [Compound 36, (E)-N-(2-{4-[(E/Z)-1,2-Bis-(4-hydroxyphenyl)but-1-enyl]phenoxy}ethyl)-N-methyl-3-naphthalen-2-yl-2-(3,4,5-trimethoxyphenyl)acrylamide], the “% Cell Death at 10 μM” value in data set [2] is on record as 0%; in data set [4], 3%. Besides, the IC50 in data set [3] was found to be 4.32 µM; in data set [1] (setting [6]) it was 3620 nM; in data set [1] (setting [7]) it was 1.51 nM.

On to `COc1ccc(/C(=C\c2cc(OC)c(OC)c(OC)c2)C(=O)N2CCCCC2)cc1` [Compound 47, (E)-2-(4-Methoxyphenyl)-1-(piperidin-1-yl)-3-(3,4,5-trimethoxyphenyl)prop-2-en-1-one], for which the melting point fell in the range of 106 to 108 °C. The same compound had an IC50 in data set [1] (setting [6]) greater than 50000 nM.

`COc1ccc(/C=C(/C(=O)O)c2cc(OC)c(OC)c(OC)c2)cc1N` [Compound 16, (E)-3-(3-Amino-4-methoxyphenyl)-2-(3,4,5-trimethoxyphenyl)acrylic acid] displayed a melting point of 199 to 202 °C. The compound further returned an IC50 in data set [1] (setting [6]) of less than 10000 nM. In addition, it took 6700 nM to reach half-maximal inhibition in data set [1] (MCF-7, MTT assay, mean of at least three experiments in triplicate) (IC50).

In turn, `COc1cc(/C(=C\c2ccc(C)cc2)C(=O)O)cc(OC)c1OC` [Compound 19, (E)-3-p-Tolyl-2-(3,4,5-trimethoxyphenyl)acrylic acid] gave a melting point of 190 to 193 °C. This compound gave a concentration for half-maximal inhibition (IC50) in data set [1] (setting [6]) of 26100 nM.

For `CC/C(=C(\c1ccccc1)c1ccc(OCCN(C)C)cc1)c1ccccc1` [Tamoxifen, reference compound], the “% Cell Death at 10 μM” value in data set [2] was 0%. In addition, in data set [5] (compound dosed individually), the “estrogenic activity (alkaline phosphatase stimulation)” value was “displays some estrogenic activity at higher concentrations”. Moreover, in data set [5] (dosed with 1 nM estradiol spike), the “estrogen stimulation (alkaline phosphatase) in mixture with estradiol” value was “estrogen stimulation at low concentration while a reduction occurs as the concentration of Tamoxifen is increased”.

Consider `CCC(=C(c1ccc(O)cc1)c1ccc(OCCN(C)C(=O)/C(=C/c2ccc(Br)cc2)c2cc(OC)c(OC)c(OC)c2)cc1)c1ccccc1` (mixture of isomers) [Compound 41, (E)-3-(4-Bromophenyl)-N-(2-{4-[(E/Z)-1-(4-hydroxyphenyl)-2-phenylbut-1-enyl]phenoxy}ethyl)-N-methyl-2-(3,4,5-trimethoxyphenyl)acrylamide], for which the “% Cell Death at 10 μM” value in data set [2] came to 0%; in data set [4], 5%. In addition, the IC50 in data set [3] is greater than 50 µM; in data set [1] (setting [6]), 1030 nM.

`COc1ccc(/C=C\c2cc(OC)c(OC)c(OC)c2)cc1O` [Compound 26, Combretastatin A-4, reference compound]: the “% Cell Death at 10 μM” value was 4% in data set [2] and 13% in data set [4]. In addition, the IC50 amounted to 0.043 µM in data set [3], 8 nM in data set [1] (setting [6]) and 8 nM in data set [1] (setting [7]).

Turning to `CCC(=C(c1ccc(O)cc1)c1ccc(OCCN(C)C(=O)/C(=C/c2ccc(Br)cc2)c2cc(OC)c(OC)c(OC)c2)cc1)c1ccc(O)cc1` (mixture of isomers) [Compound 42, (E)-N-(2-{4-[(E/Z)-1,2-Bis-(4-hydroxyphenyl)but-1-enyl]phenoxy}ethyl)-3-(4-bromophenyl)-N-methyl-2-(3,4,5-trimethoxyphenyl)acrylamide], the entries for the “% Cell Death at 10 μM” value in data set [2] and in data set [4] were 9% and 7%, respectively. Also, the IC50 in data set [3] is greater than 50 µM; in data set [1] (setting [6]), 2350 nM.

For the compound `CCC(=C(c1ccc(O)cc1)c1ccc(OCCN(C)C(=O)/C(=C/c2ccc(OC)c(N)c2)c2cc(OC)c(OC)c(OC)c2)cc1)c1ccccc1` (mixture of isomers) [Compound 45, (E)-3-(3-Amino-4-methoxyphenyl)-N-(2-{4-[(E/Z)-1-(4-hydroxyphenyl)-2-phenylbut-1-enyl]phenoxy}ethyl)-N-methyl-2-(3,4,5-trimethoxyphenyl) acrylamide], the “% Cell Death at 10 μM” value in data set [2] is recorded as 0%; in data set [4], 8%. Further, the IC50 came to 7.11 µM in data set [3] and 959 nM in data set [1] (setting [6]).

In turn, `COc1cc(/C(=C\c2ccc(SC)cc2)C(=O)O)cc(OC)c1OC` [Compound 20, (E)-3-(4-Methylsulfanylphenyl)-2-(3,4,5-trimethoxyphenyl)acrylic acid] came in with a melting point of 194 to 196 °C. The compound also registered an IC50 in data set [1] (setting [6]) of 10600 nM.

Consider `CCC(=C(c1ccc(O)cc1)c1ccc(OCCN(C)C(=O)/C(=C/c2ccc3ccccc3c2)c2cc(OC)c(OC)c(OC)c2)cc1)c1ccccc1` (mixture of isomers) [Compound 35, (E)-N-(2-{4-[(E/Z)-1-(4-Hydroxyphenyl)-2-phenylbut-1-enyl]phenoxy}ethyl)-N-methyl-3-naphthalen-2-yl-2-(3,4,5-trimethoxyphenyl) acrylamide], for which the “% Cell Death at 10 μM” value in data set [2] and in data set [4] was 0% in each case. The IC50 is 2.16 µM in data set [3] and 1510 nM in data set [1] (setting [6]).

In the case of `CCC(=C(c1ccc(O)cc1)c1ccc(OCCN(C)C(=O)/C(=C/c2ccc(OC)cc2)c2cc(OC)c(OC)c(OC)c2)cc1)c1ccccc1` (mixture of isomers) [Compound 29, (E)-N-(2-{4-[(E/Z)-1-(4-Hydroxyphenyl)-2-phenylbut-1-enyl]phenoxy}-ethyl)-3-(4-methoxyphenyl)-N-methyl-2-(3,4,5-trimethoxyphenyl)acrylamide], the “% Cell Death at 10 μM” value in data set [2] was 2%; in data set [4], 12%. For the same compound, the IC50 in data set [3] stood at 30.6 µM; in data set [1] (setting [6]) it was 87 nM.
